Results as given in patent US20250313535A1, “ALPHA 4 BETA 7 INTEGRIN MODULATORS AND USES THEREOF” (DICE MOLECULES SV, INC., priority 2022, published 2025).
pIC50: −log10 of the molar value.

What was measured:
α4β7 integrin = α4β7 integrin (Homo sapiens (Human), UniProt P13612+P26010); assay: Integrin Adhesion Assay: Protocol 1 (MAdCAM-coated plate, RPMI-8866 cells, CellTiter GLO readout); assay type: cell-based; conditions: integrin adhesion assay; determined by at least one of the assays described (protocol not specified)
Sequence of α4β7 integrin (P13612 34-1032): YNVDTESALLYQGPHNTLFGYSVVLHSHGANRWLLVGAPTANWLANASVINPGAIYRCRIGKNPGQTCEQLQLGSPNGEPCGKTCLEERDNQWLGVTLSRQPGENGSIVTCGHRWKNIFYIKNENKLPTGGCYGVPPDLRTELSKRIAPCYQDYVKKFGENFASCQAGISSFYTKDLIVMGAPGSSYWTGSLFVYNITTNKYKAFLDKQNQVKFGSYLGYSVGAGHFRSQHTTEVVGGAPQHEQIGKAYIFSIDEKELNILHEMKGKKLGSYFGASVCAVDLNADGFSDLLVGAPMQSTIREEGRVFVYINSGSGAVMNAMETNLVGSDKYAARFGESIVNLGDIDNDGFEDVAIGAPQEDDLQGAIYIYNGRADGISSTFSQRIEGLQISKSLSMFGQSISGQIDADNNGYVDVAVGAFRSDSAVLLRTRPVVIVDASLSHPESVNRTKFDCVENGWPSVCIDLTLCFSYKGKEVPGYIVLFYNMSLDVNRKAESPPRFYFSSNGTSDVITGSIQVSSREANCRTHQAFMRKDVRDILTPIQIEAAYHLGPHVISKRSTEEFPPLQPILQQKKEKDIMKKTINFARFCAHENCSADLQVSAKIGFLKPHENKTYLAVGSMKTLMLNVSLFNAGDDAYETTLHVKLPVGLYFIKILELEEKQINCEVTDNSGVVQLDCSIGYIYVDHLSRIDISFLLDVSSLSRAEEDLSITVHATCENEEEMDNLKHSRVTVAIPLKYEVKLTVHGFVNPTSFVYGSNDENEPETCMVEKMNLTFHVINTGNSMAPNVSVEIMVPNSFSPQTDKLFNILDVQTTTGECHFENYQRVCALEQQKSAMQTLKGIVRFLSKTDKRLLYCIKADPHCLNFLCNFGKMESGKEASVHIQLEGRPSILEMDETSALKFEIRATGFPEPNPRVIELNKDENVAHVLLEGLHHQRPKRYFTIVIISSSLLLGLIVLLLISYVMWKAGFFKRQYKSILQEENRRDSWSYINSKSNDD
Sequence of α4β7 integrin (P26010 20-798): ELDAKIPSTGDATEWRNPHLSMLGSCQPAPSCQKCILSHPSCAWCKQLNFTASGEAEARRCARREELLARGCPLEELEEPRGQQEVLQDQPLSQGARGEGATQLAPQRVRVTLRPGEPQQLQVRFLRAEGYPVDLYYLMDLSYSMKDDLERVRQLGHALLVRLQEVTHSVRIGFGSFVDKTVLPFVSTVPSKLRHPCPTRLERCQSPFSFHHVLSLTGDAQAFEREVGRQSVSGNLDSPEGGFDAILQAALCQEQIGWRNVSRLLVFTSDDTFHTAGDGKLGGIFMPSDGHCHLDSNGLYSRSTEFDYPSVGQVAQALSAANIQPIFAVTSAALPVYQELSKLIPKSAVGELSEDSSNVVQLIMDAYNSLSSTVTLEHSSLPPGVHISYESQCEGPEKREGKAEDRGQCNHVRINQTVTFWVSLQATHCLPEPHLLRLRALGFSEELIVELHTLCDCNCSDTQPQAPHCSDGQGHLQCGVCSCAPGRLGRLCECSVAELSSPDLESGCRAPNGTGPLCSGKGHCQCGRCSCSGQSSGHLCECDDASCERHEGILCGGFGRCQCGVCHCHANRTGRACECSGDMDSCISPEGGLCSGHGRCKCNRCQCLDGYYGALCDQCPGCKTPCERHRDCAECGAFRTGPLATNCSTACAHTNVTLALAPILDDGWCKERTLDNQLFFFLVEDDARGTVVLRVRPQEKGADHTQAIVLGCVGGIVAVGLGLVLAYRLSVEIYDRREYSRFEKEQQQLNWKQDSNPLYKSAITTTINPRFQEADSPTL
In short: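 RPMI-8866 cells (2×10^6 per mL) added with compounds (1% DMSO) to MAdCAM-coated wells blocked in HEPES/NaCl buffer with 1 mM MnCl2, 0.1 mM CaCl2, 1% BSA; 1 h at 37° C, 5% CO2. After four washes, bound cells read by CellTiter GLO luminescence; % inhibition vs DMSO and control wells, 4-parameter fit.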

α4β1 integrin = α4β1 integrin (Homo sapiens (Human), UniProt P05556+P13612); assay: Integrin Adhesion Assay: Protocol 2 (VCAM-coated plate, Jurkat cells, CellTiter GLO readout); assay type: cell-based; conditions: determined by at least one of the assays described (protocol not specified)
Sequence of α4β1 integrin (P13612 34-1032): as the sequence (P13612 34-1032) above
Sequence of α4β1 integrin (P05556 21-798): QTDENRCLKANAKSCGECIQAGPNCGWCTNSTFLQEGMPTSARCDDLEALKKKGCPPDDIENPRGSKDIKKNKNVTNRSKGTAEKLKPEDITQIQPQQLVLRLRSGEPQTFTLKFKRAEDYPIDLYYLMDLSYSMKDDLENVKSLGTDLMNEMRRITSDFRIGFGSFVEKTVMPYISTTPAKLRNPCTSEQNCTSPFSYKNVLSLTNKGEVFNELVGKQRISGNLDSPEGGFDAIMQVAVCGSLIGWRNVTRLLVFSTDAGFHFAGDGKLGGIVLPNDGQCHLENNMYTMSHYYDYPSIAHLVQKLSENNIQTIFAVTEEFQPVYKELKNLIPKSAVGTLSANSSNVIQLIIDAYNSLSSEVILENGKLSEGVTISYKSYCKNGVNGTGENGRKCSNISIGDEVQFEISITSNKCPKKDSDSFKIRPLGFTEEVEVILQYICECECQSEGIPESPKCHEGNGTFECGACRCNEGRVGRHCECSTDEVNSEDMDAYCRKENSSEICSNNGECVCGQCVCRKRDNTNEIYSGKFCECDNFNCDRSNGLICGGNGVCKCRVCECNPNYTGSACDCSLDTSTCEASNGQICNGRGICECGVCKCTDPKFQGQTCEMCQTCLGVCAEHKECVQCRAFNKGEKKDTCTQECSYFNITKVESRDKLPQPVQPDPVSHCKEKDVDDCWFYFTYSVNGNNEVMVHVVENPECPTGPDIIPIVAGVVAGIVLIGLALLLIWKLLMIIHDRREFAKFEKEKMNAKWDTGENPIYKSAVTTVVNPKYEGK
Experimental: α4β7 and α4β1 inhibition was evaluated in vitro using at least one of the following procedures:
Integrin Adhesion Assay: Protocol 2
VCAM (R&D Systems, 0.1 ug) was diluted in 50 μL PBS, added to each well of an opaque ELISA plate (Thermo), and incubated overnight at 4° C. Coated plates were washed once with PBS and then blocked with 200 μL of assay buffer (10 mM HEPES, 150 mM NaCl, 1 mM MnCl2, 0.1 mM CaCl2), 1% BSA) for 1 hour at 37° C. and 5% CO2. After incubation, buffer was aspirated from the plates and 50 μL of fresh assay buffer was added. Compounds were added by compounds dispenser (Tecan) and DMSO concentration was normalized to 1% across each plate. 50 μL of Jurkat cells (2×10^6 per mL) were added to each well and the plates were incubated for 1 hour at 37° C. and 5% CO2. After incubation, plates were allowed to cool to RT for 10 minutes before being washed four times in assay buffer by an automated plate washer (BioTek). After washing, 100 μL of a 1:1 mixture of assay buffer and CellTiter GLO 2.0 reagent (Promega) were added to each well. Plates were mixed for 2 minutes at 1000 rpm and then allowed to incubate an additional 10 minutes before reading out luminescence on a Tecan Spark plate reader. Raw data was converted to percent inhibition based on DMSO only and control compound wells, and curves were analyzed by 4-parameter fit within Dotmatics software.

Compound | pIC50 (α4β7 integrin) | pIC50 (α4β1 integrin)
Cn1ccc(=O)n(-c2cccc3c(C[C@H](NC(=O)c4c(F)cc(N(CC(F)(F)F)CC(F)(F)F)cc4F)C(=O)O)cccc23)c1=O [Compound 130] | > 8.00 | < 6.00
Cn1ccc(=O)n(-c2cccc3c(C[C@H](NC(=O)c4c(F)cc(C#N)cc4F)C(=O)O)cccc23)c1=O [Compound 131] | 7.00 to 8.00 | 6.00 to 7.00
CCCS(=O)(=O)Nc1ccc(F)c(C(=O)N[C@@H](Cc2cccc3c(-n4c(=O)ccn(C)c4=O)cccc23)C(=O)O)c1F [Compound 132] | > 8.00 | 6.00 to 7.00
Cn1ccc(=O)n(-c2cccc3c(C[C@H](NC(=O)c4c(F)cc5ncccc5c4F)C(=O)O)cccc23)c1=O [Compound 133] | > 8.00 | < 6.00
Cn1cc(CCO)c(=O)n(-c2cccc3c(C[C@H](NC(=O)c4c(F)cccc4F)C(=O)O)cccc23)c1=O [Compound 137] | 7.00 to 8.00 | < 6.00
COc1ccc(F)c(C(=O)N[C@@H](Cc2cccc3c(-n4c(=O)ccn(C)c4=O)cccc23)C(=O)O)c1F [Compound 138] | 7.00 to 8.00 | < 6.00
CCc1ccc(F)c(C(=O)N[C@@H](Cc2cccc3c(-n4c(=O)ccn(C)c4=O)cccc23)C(=O)O)c1F [Compound 139] | 7.00 to 8.00 | 6.00 to 7.00
O=C(N[C@@H](Cc1cccc2c(-c3nccc4ccncc34)cccc12)C(=O)O)c1c(F)cc(N2CCOC[C@H]2CC(F)F)cc1F [Compound 140] | 6.00 to 7.00 | < 6.00
C/C=C/c1cn(C)c(=O)n(-c2cccc3c(C[C@H](NC(=O)c4c(F)cccc4F)C(=O)O)cccc23)c1=O [Compound 141] | 7.00 to 8.00 | < 6.00
Cn1ccc(C(F)(F)F)c(-c2cccc3c(C[C@H](NC(=O)c4c(F)cc(N5CCOC[C@@H]5C(F)(F)F)cc4F)C(=O)O)cccc23)c1=O [Compound 142] | 7.00 to 8.00 | < 6.00
Cn1ccc(C(F)(F)F)c(-c2cccc3c(C[C@H](NC(=O)c4c(F)cc(N5CCOC[C@@H]5C(F)(F)F)cc4CN4CCOCC4)C(=O)O)cccc23)c1=O [Compound 143] | > 8.00 | 6.00 to 7.00
O=C(N[C@@H](Cc1cccc2c(-c3nccc4ccncc34)cccc12)C(=O)O)c1c(F)cc(N2CCOC[C@H]2CC(F)F)cc1CN1CCOCC1 [Compound 146] | > 8.00 | < 6.00
O=C(N[C@@H](Cc1cccc2c(-c3cccc4ccncc34)cccc12)C(=O)O)c1c(F)cc(N2CCOC[C@@H]2C(F)(F)F)cc1CN1CCCC1 [Compound 148] | > 8.00 | < 6.00
O=C(N[C@@H](Cc1cccc2c(-c3cccc4ccncc34)cccc12)C(=O)O)c1c(F)cc(N2CCOC[C@@H]2C(F)(F)F)cc1CN1CCOCC1 [Compound 149] | 7.00 to 8.00 | < 6.00
O=C(N[C@@H](Cc1cccc2c(-c3cccc4ccncc34)cccc12)C(=O)O)c1c(F)cc(NCC(F)(F)F)cc1CN1CCCC1 [Compound 150] | > 8.00 | < 6.00
O=C(N[C@@H](Cc1cccc2c(-c3cccc4ccncc34)cccc12)C(=O)O)c1c(F)cc(N(CC(F)(F)F)CC(F)(F)F)cc1CN1CCCC1 [Compound 151] | > 8.00 | < 6.00
Cn1ccc(=O)n(-c2cccc3c(C[C@H](NC(=O)[C@H]4C[C@H]5CC[C@@H](C4)N5CC(F)(F)F)C(=O)O)cccc23)c1=O [Compound 154] | < 6.00 | < 6.00
Cn1ccc(=O)n(-c2cccc3c(C[C@H](NC(=O)[C@@H]4C[C@H]5CC[C@@H](C4)N5CC(F)(F)F)C(=O)O)cccc23)c1=O [Compound 166] | < 6.00 | < 6.00
COC(=O)[C@H](Cc1cccc2c(-n3c(=O)ccn(C)c3=O)cccc12)NC(=O)c1c(F)cccc1CN1CCOCC1 [Compound 168] | 6.00 to 7.00 | < 6.00
Cn1c(CCN2CC(F)C2)cc(=O)n(-c2cccc3c(C[C@H](NC(=O)c4c(F)cc(N5CCOC[C@@H]5C(F)(F)F)cc4F)C(=O)O)cccc23)c1=O [Compound 169] | > 8.00 | < 6.00
CCOCc1cc(OC)c(-c2cccc3c(C[C@H](NC(=O)c4c(F)cc(N5CCOC[C@@H]5C(F)(F)F)cc4F)C(=O)O)cccc23)c(OC)c1 [Compound 171] | > 8.00 | 6.00 to 7.00
CCOCc1cc(OC)c(-c2cccc3c(C[C@H](NC(=O)c4c(F)cccc4F)C(=O)O)cccc23)c(OC)c1 [Compound 172] | 7.00 to 8.00 | 6.00 to 7.00

More lines, now with the values ahead:

pIC50 (α4β7 integrin) | pIC50 (α4β1 integrin) | Compound
7.00 to 8.00 | 6.00 to 7.00 | Cn1ccc(=O)n(-c2cccc3c(C[C@H](NC(=O)c4c(F)cc5cn(CC(F)(F)F)nc5c4F)C(=O)O)cccc23)c1=O [Compound 144]
7.00 to 8.00 | 6.00 to 7.00 | CCC1(C(=O)N[C@@H](Cc2cccc3c(-n4c(=O)ccn(C)c4=O)cccc23)C(=O)O)CCN(CC(F)(F)F)CC1 [Compound 152]
7.00 to 8.00 | 6.00 to 7.00 | CC(C)C1(C(=O)N[C@@H](Cc2cccc3c(-n4c(=O)ccn(C)c4=O)cccc23)C(=O)O)CCN(CC(F)(F)F)CC1 [Compound 153]
< 6.00 | < 6.00 | Cn1ccc(=O)n(-c2cccc3c(C[C@H](NC(=O)[C@@H]4[C@@H]5CC[C@H]4CN(CC(F)(F)F)C5)C(=O)O)cccc23)c1=O [Compound 155]
6.00 to 7.00 | < 6.00 | Cn1ccc(=O)n(-c2cccc3c(C[C@H](NC(=O)C4C(C)(C)CN(CC(F)(F)F)CC4(C)C)C(=O)O)cccc23)c1=O [Compound 156]
7.00 to 8.00 | < 6.00 | Cn1ccc(=O)n(-c2cccc3c(C[C@H](NC(=O)[C@@]4(C)CCCN(CC(F)(F)F)CC4)C(=O)O)cccc23)c1=O [Compound 157]
6.00 to 7.00 | < 6.00 | Cn1ccc(=O)n(-c2cccc3c(C[C@H](NC(=O)[C@@]4(C)CCCN(CC(F)(F)F)CC4)C(=O)O)cccc23)c1=O [Compound 158]
6.00 to 7.00 | < 6.00 | COCCN1CCC(C)(C(=O)N[C@@H](Cc2cccc3c(-n4c(=O)ccn(C)c4=O)cccc23)C(=O)O)CC1 [Compound 159]
7.00 to 8.00 | < 6.00 | CCN1CCC(C)(C(=O)N[C@@H](Cc2cccc3c(-n4c(=O)ccn(C)c4=O)cccc23)C(=O)O)CC1 [Compound 160]
6.00 to 7.00 | < 6.00 | Cn1ccc(=O)n(-c2cccc3c(C[C@H](NC(=O)C4(C)CCCCC4)C(=O)O)cccc23)c1=O [Compound 161]
6.00 to 7.00 | < 6.00 | Cn1ccc(=O)n(-c2cccc3c(C[C@H](NC(=O)C4(C)CCC(C)(C)CC4)C(=O)O)cccc23)c1=O [Compound 162]
7.00 to 8.00 | < 6.00 | Cn1ccc(=O)n(-c2cccc3c(C[C@H](NC(=O)C4(C#N)CCN(CC(F)(F)F)CC4)C(=O)O)cccc23)c1=O [Compound 163]
< 6.00 | < 6.00 | Cn1ccc(=O)n(-c2cccc3c(C[C@H](NC(=O)C4(F)CCN(CC(F)(F)F)CC4)C(=O)O)cccc23)c1=O [Compound 164]
6.00 to 7.00 | < 6.00 | Cn1ccc(=O)n(-c2cccc3c(C[C@H](NC(=O)C45CCC(C(F)(F)F)(CC4)CC5)C(=O)O)cccc23)c1=O [Compound 165]
> 8.00 | 6.00 to 7.00 | Cn1ccc(=O)n(-c2cccc3c(C[C@H](NC(=O)c4c(F)cccc4CN4CCOCC4)C(=O)O)cccc23)c1=O [Compound 167]
7.00 to 8.00 | < 6.00 | Cn1ccc(=O)n(-c2cccc3c(C[C@H](NC(=O)c4c(F)cc(N5CCOC[C@H]5C(F)(F)F)cc4F)C(=O)O)cccc23)c1=O [Compound 170]
